Values quoted from earlier work as cited in patent publication US7098367B2, “Process for the preparation of alkylene glycols” (Saudi Basic Industries Corporation, priority 2004, dated 2006).

details: value may be measured experimentally, taken from references or estimated

| SMILES | pKa |
| --- | --- |
| CN(C)c1ccccc1 [Comparative 1, Dimethylaniline, reference compound] | 5.07 |
| NC(=O)NC12CC3CC(CC(C3)C1)C2 [Comparative 3, N-(1-adamantyl)urea, reference compound] | 0.18 |
| NCCN [Example 1, Ethylenediamine (EDA)] | 9.95 |
| C1CCCNCC1 [Example 3, Hexamethyleneimine] | 10 |
| C1CN2CCN1CC2 [Example 5, 1,4-diazabicyclo[2,2,2]octane (DABCO)] | 8.82 |
| CN(C)CCN(C)C [Example 12, Tetramethylethylenediamine (TMEDA)] | 10.72 |
